Test results as given in patent US20040248809A1, “Use of antagonists of the bradykinin B2 receptor for the treatment of osteoarthrosis” (Aventis Pharma Deutschland GmbH, priority 2003, published 2004).

Tested on: MMP3 expression in the chondrosarcoma cell line SW1353
Test: MMP-3 release from SW cells (MMP3 ELISA of cell culture supernatant)
Type: cell-based
Conditions: for MMP-3 release MW (OD 450 nm) / Relative values based on starting value: SW cells; for Relative values based on starting value: IL1α alone = 100
Method: For the analysis of the disease-modifying action of HOE140 in a cell culture model relevant to cartilage, the MMP3 expression was analyzed in the chondrosarcoma cell line SW1353 (ATCC: HTB 94). For the experiments, SW1353 cells were cultured under standard conditions (37° C., 5% CO2) in DMEM-Glutamax with 10% of fetal calf serum (FCS) in plastic culture bottles. After detrypsinization of the cells, 50,000 cells were inoculated per well of a 96-well flat-bottom plate in medium without FCS and preincubated with the compound HOE140 in an incubator. After one hour, the cells were stimulated by addition of human IL1-β (0.1 ng/mL, Roche) in a total volume of 300 μL. After incubation for 24 hours under standard conditions, the cell culture supernatant was taken off, centrifuged for 5 minutes and frozen at −20° C. until further analysis. The MMP3 expression in the cell culture supernatants was then analyzed by means of a commercial MMP3 ELISA test system (Amersham) according to the instructions of the manufacturer. In parallel to this, a WST cytotoxicity test was carried out with the remaining cells. For this the commercial test system of Roche was used and the measurement was carried out according to the instructions of the >manufacturer's protocol. […] Bradykinin increases the MMP3 release by more than 30%.

[1] = IL1α + bradykinin (0.1 μM) + 0.05 μM HOE140
[2] = IL1α + bradykinin (0.1 μM) + 0.1 μM HOE140
[3] = IL1α + bradykinin (0.1 μM) + 0.5 μM HOE140
[4] = IL1α + bradykinin (0.1 μM) + 1 μM HOE140

## D-arginyl-L-arginyl-L-prolyl-L-prolylglycyl-3-(2-thienyl)-L-alanyl-L-seryl-(3R)-1,2,3,4-tetrahydro-3-isoquinolinecarbonyl-(2S,3aS,7aS)-octahydro-1H-indole-2-carbonyl-L-arginine [HOE140]
SW1353 cells, IL1 + bradykinin
  inhibition of the bradykinin-increased release of MMP3 (in words): inhibited by HOE140 in a dose-dependent manner
[1]
  MMP-3 release MW (OD 450 nm): 458 OD 450 nm
  Relative values based on starting value: 139.6
[2]
  MMP-3 release MW (OD 450 nm): 371 OD 450 nm
  Relative values based on starting value: 113.1
[3]
  MMP-3 release MW (OD 450 nm): 309 OD 450 nm
  Relative values based on starting value: 94.2
[4]
  MMP-3 release MW (OD 450 nm): 306 OD 450 nm
  Relative values based on starting value: 93.3
